Converted amounts (≈) assume the structure as drawn.
Tested on: Giardia WB
Assay: Giardia viability (ATP content) assay in 1536-well format
Format: cell-based, Giardia lamblia
Conditions: Giardia, 48 h; percent reduction in ATP levels compared with 38.3 mM Mnz at maximal compound concentration; read-out: Giardia WB Efficacy
Procedure: (§1) For the viability assay in 1536-well format, 2 μL media was dispensed per well into 1536-well white solid-bottom plates using a Multidrop Combi dispenser (Thermo Scientific). Subsequently, 23 nL/well compound solutions or DMSO controls were dispensed to the assay plates containing media via a pintool workstation (Kalypsys, San Diego). Trophozoites were chilled on ice to detach from glass tubes, and unless otherwise noted, were diluted to 250,000 trophozoites/mL with ice cold media. The trophozoite suspension was kept on ice and dispensed as 4 μL/well with the Multidrop Combi dispenser. Attachment of trophozoites to dispensing apparatus was avoided with continuous dispensing and icing of the trophozoite suspension. The plates were covered with plastic low-evaporation lids, individually sealed in Type A Bio-Bags and incubated at 37° C. for 48 hours. Following incubation, 4 μL/well of ATPLite reagent was dispensed with the Multidrop Combi dispenser. The assay plates were briefly centrifuged at 1000 RPM and luminescence signal was detected on a ViewLux plate reader (PerkinElmer) after 20 min incubation at room temperature. Signal-to-basal (S/B) ratio, Z′ factor and coefficient of variation (CV) were calculated from 32 wells with 0.38% DMSO (total signal) and 32 well with 38.3 μM Mnz (basal signal).
Assay miniaturization in 1,536-well plate format was undertaken to increase throughput and facilitate screening of large compound libraries. The volume of trophozoites suspension was reduced to 6 μL/well and the ATP detection reagent was reduced to 4 μL/well in the 1536-well assay plates. […] The 100 trophozoites/well density was selected for further experiments to reduce the preparation work of Giardia cultures. Following these conditions, a DMSO test plate was used to assess the statistical parameters of the assay in the 1,536-well plate format.
Using the above established conditions in 1536-well format, each compound of the invention was tested at 5 concentration points, ranging from 61 nM-38.3 μM in a 1:5 dilution ratio (Inglese, J., D. S. Auld, A. Jadhav, R. L. Johnson, A. Simeonov, A. Yasgar, W. Zheng, and C. P. Austin. 2006. Quantitative high-throughput screening: a titration-based approach that efficiently identifies biological activities in large chemical libraries. Proc Natl Acad Sci USA 103:11473-8).

| Compound | Emax [%] |
| --- | --- |
| O=C(Nc1ccccc1)c1cc([N+](=O)[O-])ccc1Cl [GW9662] | 86.4 |

Same assay, conditions: Giardia; concentration at which 50% of DMSO control ATP levels are detected; 48 hours, 1536-well

| Compound | IC50 [µM] |
| --- | --- |
| O=C(Nc1ccccc1)c1cc([N+](=O)[O-])ccc1Cl [GW9662] | 6.87 |

Same assay, conditions: concentration at which 50% of DMSO control ATP levels are detected; 48 hours, 1536-well

| Compound | IC50 [µM] |
| --- | --- |
| N#Cc1cc([N+](=O)[O-])c2sc(C(N)=O)[n+]([O-])c2c1 [BTO-1] | 1.73 |
| O=[N+]([O-])c1ccc([As](=O)(O)O)cc1 [Nitarsone] | 0.43 |
| hydroxocobalamin acetate [Hydroxocobalam in Acetate] | 13.7 |

Same assay, conditions: percent reduction in ATP levels compared with 38.3 mM Mnz at maximal compound concentration

| Compound | Giardia WB Efficacy [%] |
| --- | --- |
| N#Cc1cc([N+](=O)[O-])c2sc(C(N)=O)[n+]([O-])c2c1 [BTO-1] | 72.3 |
| O=[N+]([O-])c1ccc([As](=O)(O)O)cc1 [Nitarsone] | 97.0 |
| hydroxocobalamin acetate [Hydroxocobalam in Acetate] | 92.2 |

Tested on: CHO cells
Assay: CHO cell cytotoxicity assay in 1536-well format (ATP content counter-screen)
Format: cell-based, Chinese hamster
Conditions: Cricetulus griseus, CHO; concentration at which 50% of DMSO control ATP levels are detected; 48 hours
Procedure: For the viability assay in 1536-well format, 2 μL media was dispensed per well into 1536-well white solid-bottom plates using Multidrop Combi dispenser. Subsequently, 23 nL/well compound solutions or DMSO controls were dispensed to the assay plates via a pintool workstation. The Chinese hamster ovary (CHO) cells were grown in T225 flasks to 70% confluence under a standard cell culture condition (ATCC), detached with 0.25% Trypsin/EDTA, and seeded at 250 cells/well in 4 μL media (Dulbecco's Modified Eagle Medium, 10% fetal bovine serum, 1× penicillin/streptomycin). The plates were incubated at 37° C. with 5% CO2 and 95% humidity for 48 hours. Subsequently, ATP content was measured following the addition of 4 μL/well of ATPLite reagent and a 20 min incubation on a ViewLux plate reader.
Data from the CHO cell counter-screen underwent the same initial analysis, with the exception that raw luminescence counts were normalized relative to DMSO only wells (0% activity) and 38.3 μM camptothecin treated wells (100% activity).
CHO cells, commonly used in high throughput compound screening, were selected to determine the cytotoxicity of the compounds towards a mammalian cell line.

| Compound | IC50 [µM] |
| --- | --- |
| O=C(Nc1ccccc1)c1cc([N+](=O)[O-])ccc1Cl [GW9662] | > 100 |

Same assay, conditions: concentration at which 50% of DMSO control ATP levels are detected; 48 hours

| Compound | IC50 [µM] |
| --- | --- |
| N#Cc1cc([N+](=O)[O-])c2sc(C(N)=O)[n+]([O-])c2c1 [BTO-1] | 68.8 |
| O=[N+]([O-])c1ccc([As](=O)(O)O)cc1 [Nitarsone] | > 100 |
| hydroxocobalamin acetate [Hydroxocobalam in Acetate] | > 100 |

Tested on: G. lamblia GS isolate
Assay: ATP content assay against G. lamblia GS isolate
Format: cell-based, Giardia lamblia
Conditions: G. lamblia GS isolate; purchased powder samples
Procedure: as §1
As a further confirmatory step, some compounds that were commercially available were purchased as powder samples and tested against the G. lamblia GS isolate using both the ATP content and enumeration assays (Table 3).

| Compound | ATP Content Efficacy [%] |
| --- | --- |
| N#Cc1cc([N+](=O)[O-])c2sc(C(N)=O)[n+]([O-])c2c1 [BTO-1] | 99.1 |
| CC(C)C[C@H](NC(=O)[C@H](Cc1ccccc1)NC(=O)c1cnccn1)B(O)O [Bortezomib] | 98.5 |
| O=C(Nc1ccccc1)c1cc([N+](=O)[O-])ccc1Cl [GW9662] | 99.2 |
| O=[N+]([O-])c1ccc([As](=O)(O)O)cc1 [Nitarsone] | 99.6 |
| hydroxocobalamin acetate [Hydroxocobalam in Acetate] | 98.4 |

Same assay, conditions: G. lamblia GS isolate; purchased powder samples; read-out: ATP Content IC50

| Compound | IC50 [µM] |
| --- | --- |
| N#Cc1cc([N+](=O)[O-])c2sc(C(N)=O)[n+]([O-])c2c1 [BTO-1] | 2 |
| O=[N+]([O-])c1ccc([As](=O)(O)O)cc1 [Nitarsone] | 0.9 |
| hydroxocobalamin acetate [Hydroxocobalam in Acetate] | 78.3 |

Same assay, conditions: Giardia duodenalis; G. lamblia GS isolate; purchased powder samples; read-out: ATP Content IC50

| IC50 [µM] | Compound |
| --- | --- |
| 0.06 | CC(C)C[C@H](NC(=O)[C@H](Cc1ccccc1)NC(=O)c1cnccn1)B(O)O [Bortezomib] |
| 12.7 | O=C(Nc1ccccc1)c1cc([N+](=O)[O-])ccc1Cl [GW9662] |

Same assay, conditions: Table 2, screen; read-out: Giardia GS IC50

| Compound | IC50 [µM] |
| --- | --- |
| O=[N+]([O-])c1ccc([As](=O)(O)O)cc1 [Nitarsone] | 1.26 |

Tested on: Giardia lamblia GS isolate
Assay: Trophozoite enumeration assay
Format: cell-based
Conditions: G. lamblia GS isolate; 48 hrs, cell counting in hemocytometer
Procedure: Giardia lamblia GS isolate was plated into sterile 96-well black clear-bottom assay plates at 10,000 cells/well density and 120 μL/well volume in culture media. Compounds tested were prepared as 50 mM DMSO solutions in a 12 point 1:3 titration series in DMSO, with exceptions being carbadox, Bortezomib and BTO-1, which were used at 10 mM top concentration due to solubility limitations. Compound titration series were added to duplicate assay wells as 0.5 μL/well and the assay plates were incubated anaerobically in Type A Bio-Bag (BD Diagnostics) for 48 hrs at 37° C. Cell density was visually scored in each well and the 6 wells surrounding the visually determined IC50 concentrations were quantitated by cell counting. For enumeration, trophozoites were detached on ice for 30 min and resuspended via pipetting. 75 μL of culture was removed from each well, mixed with 65 μL of 0.4% Trypan Blue and 10 μL of 30% bleach (final concentration of 2% bleach) to immobilize trophozoites. Trophozoites were then counted in a hemocytometer.

| Compound | IC50 [µM] |
| --- | --- |
| N#Cc1cc([N+](=O)[O-])c2sc(C(N)=O)[n+]([O-])c2c1 [BTO-1] | 9.3 |
| O=[N+]([O-])c1ccc([As](=O)(O)O)cc1 [Nitarsone] | 1.2 |
| hydroxocobalamin acetate [Hydroxocobalam in Acetate] | 54.2 |

Same assay, conditions: Giardia duodenalis; G. lamblia GS isolate; 48 hrs, cell counting in hemocytometer

| IC50 [µM] | Compound |
| --- | --- |
| 0.13 | CC(C)C[C@H](NC(=O)[C@H](Cc1ccccc1)NC(=O)c1cnccn1)B(O)O [Bortezomib] |
| 32.9 | O=C(Nc1ccccc1)c1cc([N+](=O)[O-])ccc1Cl [GW9662] |

Tested on: Giardia lamblia GS isolate
Assay: Minimum Lethal Concentration (MLC) determination
Format: cell-based
Conditions: 3 days with compound, then 3 days regrowth without compound; tube without any live organisms
Procedure: Giardia lamblia GS isolate was used throughout the Minimal Lethal Concentration (MLC) experiments. Organisms were grown and maintained in TYI-S-33 medium supplemented with bile and antibiotics (Keister, 1983). Cidal activity was determined in 96-well culture plates (Corning Incorporated) followed by Giardia trophozoites regrowth in 8 ml tubes (Fisher Scientific). Dry compounds were dissolved in DMSO (Sigma) at stock concentration of 10 mM and then added to the growth media to ensure final DMSO concentration of no more than 0.5%. 100 μl of the compound solutions were placed in the wells by serial dilutions. 10 μl of Giardia trophozoites containing 10000 organisms were then added. Serial dilutions of metronidazole served as the positive control and the DMSO-containing medium served as the negative control. Plates were incubated under anaerobic conditions in sealed bags (Becton Dickinson and Company) at 37° C. for 3 days and surveyed visually under microscope to check survival, mobility and attachment of trophozoites. The plate was chilled on ice for 30 min and the entire contents of 4 wells in the growth/death transition were transferred into the 8 ml tubes containing growth media only (without the compound). After 3 days of incubation at 37° C., tubes were checked under microscope for any surviving trophozoites. MLC was attributed to the tube without any live organisms. See, e.g., Keister, D. B. 1983. Axenic culture of Giardia lamblia in TYI-S-33 medium supplemented with bile. Trans. Soc. Trop. Med. Hyg. 77:487-488.

| Compound | MBC [µM] |
| --- | --- |
| O=[N+]([O-])c1ccc([As](=O)(O)O)cc1 [Nitarsone] | 2.6 |
| hydroxocobalamin acetate [Hydroxocobalam in Acetate] | >208 |

Same assay, conditions: Giardia duodenalis, 72 h; 3 days with compound, then 3 days regrowth without compound; tube without any live organisms

| Compound | MBC [µM] |
| --- | --- |
| CC(C)C[C@H](NC(=O)[C@H](Cc1ccccc1)NC(=O)c1cnccn1)B(O)O [Bortezomib] | 0.51 (≈ 0.196 µg/mL) |
| O=C(Nc1ccccc1)c1cc([N+](=O)[O-])ccc1Cl [GW9662] | 208 (≈ 57.5 µg/mL) |

Tested on: CHO cells
Assay: CHO cell cytotoxicity assay in 1536-well format (ATP content counter-screen)
Format: cell-based, Chinese hamster
Conditions: Cricetulus griseus, CHO, 48 h; percent reduction in ATP levels compared with 38.3 µM camptothecin at maximal compound concentration; read-out: CHO Efficacy

| Compound | Emax [%] |
| --- | --- |
| O=C(Nc1ccccc1)c1cc([N+](=O)[O-])ccc1Cl [GW9662] | 8.5 |

Same assay, conditions: percent reduction in ATP levels compared with 38.3 mM camptothecin at maximal compound concentration

| Compound | CHO Efficacy [%] |
| --- | --- |
| N#Cc1cc([N+](=O)[O-])c2sc(C(N)=O)[n+]([O-])c2c1 [BTO-1] | 32.2 |
| O=[N+]([O-])c1ccc([As](=O)(O)O)cc1 [Nitarsone] | −13.5 |
| hydroxocobalamin acetate [Hydroxocobalam in Acetate] | 16.1 |

Reference: patent US9173898B2, “Methods of treating giardiasis” (THE UNITED STATES OF AMERICA, as represented by the …, priority 2010, dated 2015)
